# What was measured:
# CCD39Lu = experiment: MTT cytotoxicity assay, normal lung fibroblasts CCD39Lu; format: cell-based; conditions: Fibroblast, ± SD, healthy human lung fibroblasts, 72 h, read-out: IC50 CCD39Lu (toxicity in normal cells)
# Procedure: (§1) Cell survival was measured as the percentage absorbance compared to the control (nontreated cells). […]
# (§2) SI indexes were calculated from equation SI = IC50 normal cell line HDF/IC50 respective cancerous cell line (Table 2). A beneficial SI > 1.0 indicates a compound with efficacy against tumor cell greater than the toxicity against normal cells.
# (§3) All experiments were carried out with human breast adenocarcinoma (MDA-MB-231 and MCF-7), hepatocellular carcinoma (HepG2), human cervical adenocarcinoma (HeLa) cancer cell lines, and human normal lung fibroblast (CCD39Lu) cell line. The cell line was purchased from the European Collection of Cells Cultures (ECACC, Salisbury, UK), and cultured in DMEM with phenol red supplemented with 10% (v/v) FBS, 1% (v/v) penicillin/streptomycin, and 1% (v/v) L-glutamine at 37 °C, in a humidified atmosphere containing 5% CO2.
# (§4) The tested compounds were dissolved in DMSO to the final concentration 10 mM and stored […]
# (§5) The cytotoxic effect of the tested compounds was determined by MTT assay. MDA-MB-231, MCF-7, HepG2, HeLa, and CCD39Lu cells were seeded in 96 wells plates at density 2x10^4 cells/well and incubated overnight under cell culture condition. Next, cells were treated with tested compounds at concentrations of 10 µM; 5 µM; 2.5 µM; 1.2 µM; 0.6 µM; 0.3 µM; 0.15 […]
# (§6) µM. Moreover, GDM (for MCF-7) and 8 (for MCF-7 and MDA-MB-231) due to high cytotoxicity, were additionally tested at a lower concentration range of 2.5 µM; 1.2 µM; 0.6 µM; 0.3 µM; 0.15µM; 0.07 µM; 0.03 µM. DMSO was used as a control, and the concentration […]
# (§7) Tested compounds were added to cells in the medium without phenol red. Cells were incubated 72 h at 37 °C in a humidified atmosphere containing 5% CO2.
# (§8) Then, the medium was aspirated and MTT solution at a concentration of 0.59 mg/mL in cell culture medium was added to each well. Plates were incubated for 1.5 hours at 37 °C, and then plates were centrifuged for 3 minutes. The formazan crystals were dissolved in 200 µl DMSO and plates were agitated on a plate shaker at 300 –500 rpm for 10 minutes. Absorbance at 570 nm was measured using a plate reader (Biotek Instruments, Elx -800). Data were normalized to the mean absorption of control cells. All experiments were performed at least three times. […]
# SKOV-3 = experiment: SRB cytotoxicity assay, SKOV-3 (2nd panel); format: cell-based, human; conditions: for IC50: Homo sapiens, SK-OV-3, ± SD, SRB, 72 h, mixtures equimolar 1:1; for selectivity index SIHDF (SKOV-3): IC50 normal cell line HDF/IC50 SKOV-3
# Procedure: (§9) Human cancer cells SKBR-3 (human breast cancer cell line) and SKOV-3 (ovarian cancer cell line) were cultured in McCoy’s Modified Medium. […]
# (§10) Medium. Human Dermal Fibroblasts cell line (HDF) was cultured in Fibroblast Basal Medium.
# (§11) Each medium was supplemented with 10% fetal bovine serum, 1% L-glutamine, and 1% penicillin/streptomycin solution. The cell lines were kept in the incubator at 37◦C. The optimal plating density of cell lines was determined to be 5 × 104. All the cell lines and mediums were obtained from American Type Culture Collection (ATCC) supplied by LGC-Standards. The protein-staining SRB (Sigma-Aldrich) microculture colorimetric assay, developed by the National Cancer Institute (USA) for in vitro antitumor screening was used in this study, to estimate the cell number by providing a sensitive index of total cellular protein content, being linear to cell density. The monolayer cell culture was trypsinized and the cell count was adjusted to 5 × 10^4 cells. To each well of the 96 well microtiter plate, 0.1 mL of the diluted cell suspension (approximately […]) was added. After 24 hours, when a partial monolayer was formed, the supernatant was washed out and 100 μL of six different compound concentrations (0.1, 0.2, 1, 2, 10, and 20 μM) were added to the cells in microtitre plates. The tested compounds were dissolved in DMSO (containing 10 % of water) (100 μL) and the […]
# (§12) lines. The cells were exposed to compounds for 72 hours at 37 °C in a humidified atmosphere (90% RH) containing 5% CO2. After that, 25 μL of 50 % trichloroacetic acid was added to the wells and the plates were incubated for 1 hour at 4◦C. The plates were then washed out with the distilled water to remove traces of medium and next dried by the air. The air-dried plates were stained with 100 μL of 0.4% sulforhodamine B (prepared in 1 % acetic acid) and kept for 30 minutes at room temperature. The unbound dye was removed by rapidly washing with 1% […]
# (§13) acetic acid and then air dried overnight. The protein-bound dye was dissolved in 100 μL of 10 mM unbuffered Tris base (pH 10.5) for optical density determination at 490 nm. All cytotoxicity experiments were performed three times. Cell survival was measured as the percentage absorbance compared to the control (nontreated cells). Cytarabine (ara-C) and GDM were used as the internal standards. Additionally biological assays were performed in Human Dermal Fibroblasts cell line (HDF) in aim to evaluate cytotoxicity of GDM and its 1-13 analogs in healthy cells. SI indexes were calculated from equation SI = IC50 normal cell line HDF/IC50 respective cancerous cell line (Table 2). A beneficial SI > 1.0 indicates a compound with efficacy against tumor cell greater than the toxicity against normal cells. […]
# HeLa = experiment: MTT cytotoxicity assay, HeLa (1st panel); format: cell-based, human; conditions: for IC50: Homo sapiens, HeLa, ± SD, MTT, 72 h; for selectivity index SI (HeLa): IC50 normal cell line CCD39Lu/IC50 HeLa
# Procedure: as §1, §2, §3, §4, §5, §6, §7, §8
# PC-3 = experiment: SRB cytotoxicity assay, PC-3 (2nd panel); format: cell-based, human; conditions: for IC50: Homo sapiens, PC-3, ± SD, SRB, 72 h, mixtures equimolar 1:1; for selectivity index SIHDF (PC-3): IC50 normal cell line HDF/IC50 PC-3
# Procedure: as §10, §11, §12, §13
# MCF-7 = experiment: MTT cytotoxicity assay, MCF-7 (1st panel); format: cell-based, human; conditions: for IC50: ± SD, MTT, 72 h; for selectivity index SI (MCF-7): IC50 normal cell line CCD39Lu/IC50 MCF-7
# Procedure: as §1, §2, §3, §4, §5, §6, §7, §8
# SKBR-3 = experiment: SRB cytotoxicity assay, SKBR-3 (2nd panel); format: cell-based, human; conditions: for IC50: Homo sapiens, SK-BR-3, ± SD, SRB, 72 h, mixtures equimolar 1:1; for selectivity index SIHDF (SKBR-3): IC50 normal cell line HDF/IC50 SKBR-3
# Procedure: as §9, §10, §11, §12, §13
# U-87 = experiment: SRB cytotoxicity assay, U-87 (2nd panel); format: cell-based, human; conditions: for IC50: Homo sapiens, U-87 MG, ± SD, SRB, 72 h; for selectivity index SIHDF (U-87): IC50 normal cell line HDF/IC50 U-87
# Procedure: U-87MG cells (glioblastoma cell line) were cultured in Eagle’s Minimal Essential Medium. Human Dermal Fibroblasts cell line (HDF) was cultured in Fibroblast Basal Medium.
# as §11, §12, §13
# A-549 = experiment: SRB cytotoxicity assay, A-549 (2nd panel); format: cell-based, human; conditions: for IC50: Homo sapiens, A549, ± SD, SRB, 72 h; for selectivity index SIHDF (A-549): IC50 normal cell line HDF/IC50 A-549
# Procedure: as §10, §11, §12, §13
# HDF = experiment: SRB cytotoxicity assay, human dermal fibroblasts HDF; format: cell-based; conditions: 72 h, ± SD, mixtures equimolar 1:1, read-out: IC50 HDF (toxicity in normal cells)
# Procedure: as §10, §11, §12, §13
# physchem = conditions: water, Solubility SH2O
SMILES,IC50 (CCD39Lu),IC50 (SKOV-3),selectivity index SIHDF (SKOV-3) (SKOV-3),IC50 (HeLa),selectivity index SI (HeLa) (HeLa),IC50 (PC-3),selectivity index SIHDF (PC-3) (PC-3),"IC50 (MCF-7; Homo sapiens, MCF7, 72 h)",selectivity index SI (MCF-7) (MCF-7),IC50 (MCF-7),IC50 (SKBR-3),selectivity index SIHDF (SKBR-3) (SKBR-3),IC50 (U-87),selectivity index SIHDF (U-87) (U-87),IC50 (A-549),selectivity index SIHDF (A-549) (A-549),CC50 (HDF),solubility (physchem)
CO[C@H]1/C=C\C=C(/C)C(=O)NC2=CC(=O)C(NC3CCC3)=C(C[C@@H](C)C[C@H](OC)[C@H](O)[C@@H](C)/C=C(\C)[C@@H]1OC(N)=O)C2=O [Compound 1],> 10 µM,8.04 ± 0.24 µM,3.73,1.67 ± 0.54 µM,> 5.99,7.02 ± 0.06 µM,4.28,~0.1 µM,> 76.92,0.13 ± 0.01 µM,7.44 ± 0.09 µM,4.03,7.32 ± 0.49 µM,4.10,9.01 ± 0.63 µM,3.33,30 µM,–
CO[C@H]1/C=C\C=C(/C)C(=O)NC2=CC(=O)C(NC3CN4CCC3CC4)=C(C[C@@H](C)C[C@H](OC)[C@H](O)[C@@H](C)/C=C(\C)[C@@H]1OC(N)=O)C2=O (some centres unmarked) [Compound 8],0.87 ± 0.22 µM,1.16 ± 0.92 µM,2.78,1.06 ± 0.26 µM,0.82,1.47 ± 0.31 µM,2.19,~0.1 µM,9.67,0.09 ± 0.01 µM,1.49 ± 0.29 µM,2.16,1.08 ± 0.16 µM,–,0.94 ± 0.03 µM,–,3.22 ± 0.18 µM,0.15 mg/mL
C=CC[N+]12CCC(CC1)C(NC1=C3C[C@@H](C)C[C@H](OC)[C@H](O)[C@@H](C)/C=C(\C)[C@H](OC(N)=O)[C@@H](OC)/C=C\C=C(/C)C(=O)NC(=CC1=O)C3=O)C2 (some centres unmarked) [Compound 9],> 10 µM,3.86 ± 0.05 µM,1.37,9.25 ± 0.98 µM,> 1.08,3.01 ± 0.11 µM,1.76,2.34 ± 0.56 µM,> 4.27,–,3.12 ± 0.01 µM,1.70,3.69 ± 0.08 µM,1.43,3.09 ± 0.01 µM,1.71,~5.29 µM,–
C/C=C/C[N+]12CCC(CC1)C(NC1=C3C[C@@H](C)C[C@H](OC)[C@H](O)[C@@H](C)/C=C(\C)[C@H](OC(N)=O)[C@@H](OC)/C=C\C=C(/C)C(=O)NC(=CC1=O)C3=O)C2 (some centres unmarked) [Compound 10],> 10 µM,1.61 ± 0.13 µM,1.84,7.43 ± 3.21 µM,> 1.35,1.88 ± 0.02 µM,1.57,2.51 ± 1.03 µM,> 3.98,–,1.94 ± 0.52 µM,1.53,1.84 ± 0.11 µM,1.61,1.29 ± 0.07 µM,2.29,2.96 ± 0.36 µM,> 5 mg/mL
CO[C@H]1/C=C\C=C(/C)C(=O)NC2=CC(=O)C(NC3C[N+]4(C/C=C/c5ccccc5)CCC3CC4)=C(C[C@@H](C)C[C@H](OC)[C@H](O)[C@@H](C)/C=C(\C)[C@@H]1OC(N)=O)C2=O (some centres unmarked) [Compound 13],> 10 µM,2.17 ± 0.06 µM,1.76,8.14 ± 0.64 µM,> 1.23,2.05 ± 0.09 µM,1.86,2.31 ± 0.97 µM,> 4.33,–,2.02 ± 0.11 µM,1.89,2.26 ± 0.15 µM,1.67,2.06 ± 0.01 µM,1.85,~3.81 µM,> 5 mg/mL

# Source: PMC8344233, “Anticancer activity and toxicity of new quaternary ammonium geldanamycin derivative salts and their mixtures with potentiators” (Journal of Enzyme Inhibition and Medicinal Chemistry, 2021)
